In brackets after ≈: the same amount, converted by molar mass.
How the values were obtained:
[1] = tested on: Staphylococcus aureus; assay: Antibacterial activity against methicillin-resistant Staphylococcus aureus; format: functional
[2] = Cytotoxicity against mouse fibroblast cells assessed as cell viability at […] (reference value: 90.23 %); format: toxicity, cell-based; design: dose or concentration left out as unconfirmed; conditions: read-out: Activity
[3] = tested on: Staphylococcus aureus; assay: Antimicrobial activity against Staphylococcus aureus by serial dilution method; format: functional
[4] = tested on: Shigella flexneri; assay: Antimicrobial activity against Shigella flexneri by serial dilution method; format: functional
[5] = tested on: Candida albicans; assay: Antimicrobial activity against Candida albicans by serial dilution method; format: functional
[6] = tested on: Salmonella typhi; assay: Antimicrobial activity against Salmonella typhi by serial dilution method; format: functional, Salmonella enterica subsp. enterica serovar Typhi; conditions: Salmonella enterica
[7] = tested on: Pseudomonas aeruginosa; assay: Antimicrobial activity against Pseudomonas aeruginosa by serial dilution method; format: functional
[8] = tested on: Listeria monocytogenes; assay: Antimicrobial activity against Listeria monocytogenes by serial dilution method; format: functional
[9] = tested on: Bacillus cereus; assay: Antimicrobial activity against Bacillus cereus by serial dilution method; format: functional
[10] = tested on: Escherichia coli; assay: Antimicrobial activity against Escherichia coli by serial dilution method; format: functional

CC(=O)/C(=C\c1cn(CC(=O)N2CCCCC2)c2ccccc12)n1c([N+](=O)[O-])cnc1C
MIC [1]: 1 µg/mL (≈ 2.3 µM)

CCOC(=O)C1(C(=O)OCC)C[C@@H](c2c[nH]c3ccccc23)O[C@H]1c1cn(-c2ccccc2)nc1-c1ccccc1
viability [2]: 93.2%

CCOC(=O)C1(C(=O)OCC)C[C@@H](c2c[nH]c3ccc(Cl)cc23)O[C@H]1c1cn(-c2ccccc2)nc1-c1ccc(OC)cc1
viability [2]: 91.4%

CCOC(=O)C1(C(=O)OCC)C[C@@H](c2c[nH]c3ccc(Cl)cc23)O[C@H]1c1cn(-c2ccccc2)nc1-c1ccccc1
viability [2]: 94.3%

CCOC(=O)C1(C(=O)OCC)C[C@@H](c2c[nH]c3ccc(Cl)cc23)O[C@H]1c1cn(-c2ccccc2)nc1-c1ccc(C)cc1
viability [2]: 97.6%

CCOC(=O)C1(C(=O)OCC)C[C@@H](c2c[nH]c3ccc(C)cc23)O[C@H]1c1cn(-c2ccccc2)nc1-c1ccc(OC)cc1
viability [2]: 93.5%

CCOC(=O)C1(C(=O)OCC)C[C@@H](c2c[nH]c3ccccc23)O[C@H]1c1cn(-c2ccccc2)nc1-c1ccc(F)cc1
viability [2]: 99.1%

CCOC(=O)C1(C(=O)OCC)C[C@@H](c2c[nH]c3ccc(Cl)cc23)O[C@H]1c1cn(-c2ccccc2)nc1-c1ccc(Cl)cc1
viability [2]: 95.2%

CCOC(=O)C1(C(=O)OCC)C[C@@H](c2c[nH]c3ccc(F)cc23)O[C@H]1c1cn(-c2ccccc2)nc1-c1ccc(F)cc1
viability [2]: 96.2%

CCOC(=O)C1(C(=O)OCC)C[C@@H](c2c[nH]c3ccc(F)cc23)O[C@H]1c1cn(-c2ccccc2)nc1-c1ccccc1
viability [2]: 95.7%

CCOC(=O)C1(C(=O)OCC)C[C@@H](c2c[nH]c3ccccc23)O[C@@H]1c1cn(-c2ccccc2)nc1-c1ccc(Cl)cc1
MIC [3]: 6.25 µg/mL (≈ 10.7 µM)
MIC [4]: 12.5 µg/mL (≈ 21.4 µM)
MIC [5]: 12.5 µg/mL (≈ 21.4 µM)
MIC [6]: 6.25 µg/mL (≈ 10.7 µM)
MIC [7]: 3.12 µg/mL (≈ 5.35 µM)
MIC [8]: 12.5 µg/mL (≈ 21.4 µM)
MIC [9]: 6.25 µg/mL (≈ 10.7 µM)
MIC [10]: 6.25 µg/mL (≈ 10.7 µM)

CCOC(=O)C1(C(=O)OCC)C[C@@H](c2c[nH]c3ccc(C)cc23)O[C@H]1c1cn(-c2ccccc2)nc1-c1ccccc1
viability [2]: 92.3%

CCOC(=O)C1(C(=O)OCC)C[C@@H](c2c[nH]c3ccccc23)O[C@H]1c1cn(-c2ccccc2)nc1-c1ccc(Cl)cc1
MIC [3]: 1.56 µg/mL (≈ 2.67 µM)
MIC [4]: 6.25 µg/mL (≈ 10.7 µM)
MIC [5]: 12.5 µg/mL (≈ 21.4 µM)
MIC [6]: 1.56 µg/mL (≈ 2.67 µM)
MIC [7]: 1.56 µg/mL (≈ 2.67 µM)
viability [2]: 98.1%
MIC [8]: 1.56 µg/mL (≈ 2.67 µM)
MIC [9]: 1.56 µg/mL (≈ 2.67 µM)
MIC [10]: 3.12 µg/mL (≈ 5.35 µM)

CCOC(=O)C1(C(=O)OCC)C[C@@H](c2c[nH]c3ccc(OC)cc23)O[C@H]1c1cn(-c2ccccc2)nc1-c1ccc(Cl)cc1
viability [2]: 88.8%

CCOC(=O)C1(C(=O)OCC)C[C@@H](c2c[nH]c3ccc(F)cc23)O[C@H]1c1cn(-c2ccccc2)nc1-c1ccc(C)cc1
viability [2]: 96.5%

CCOC(=O)C1(C(=O)OCC)C[C@@H](c2c[nH]c3ccc(OC)cc23)O[C@H]1c1cn(-c2ccccc2)nc1-c1ccc(F)cc1
viability [2]: 94.8%

CCOC(=O)C1(C(=O)OCC)C[C@@H](c2c[nH]c3ccc(OC)cc23)O[C@H]1c1cn(-c2ccccc2)nc1-c1ccc(C)cc1
viability [2]: 88.9%

CCOC(=O)C1(C(=O)OCC)C[C@@H](c2c[nH]c3ccccc23)O[C@H]1c1cn(-c2ccccc2)nc1-c1ccc(C)cc1
viability [2]: 95.3%

CCOC(=O)C1(C(=O)OCC)C[C@@H](c2c[nH]c3ccccc23)O[C@H]1c1cn(-c2ccccc2)nc1-c1ccc(OC)cc1
viability [2]: 94.3%

CCOC(=O)C1(C(=O)OCC)C[C@@H](c2c[nH]c3ccc(F)cc23)O[C@H]1c1cn(-c2ccccc2)nc1-c1ccc(OC)cc1
viability [2]: 94.6%

CCOC(=O)C1(C(=O)OCC)C[C@@H](c2c[nH]c3ccc(C)cc23)O[C@H]1c1cn(-c2ccccc2)nc1-c1ccc(F)cc1
viability [2]: 99.2%

CCOC(=O)C1(C(=O)OCC)C[C@@H](c2c[nH]c3ccc(C)cc23)O[C@H]1c1cn(-c2ccccc2)nc1-c1ccc(C)cc1
viability [2]: 94.2%

CCOC(=O)C1(C(=O)OCC)C[C@@H](c2c[nH]c3ccc(OC)cc23)O[C@H]1c1cn(-c2ccccc2)nc1-c1ccccc1
viability [2]: 90.1%

CCOC(=O)C1(C(=O)OCC)C[C@@H](c2c[nH]c3ccc(F)cc23)O[C@H]1c1cn(-c2ccccc2)nc1-c1ccc(Cl)cc1
viability [2]: 99.1%

CCOC(=O)C1(C(=O)OCC)C[C@@H](c2c[nH]c3ccc(Cl)cc23)O[C@H]1c1cn(-c2ccccc2)nc1-c1ccc(F)cc1
viability [2]: 90.5%

CCOC(=O)C1(C(=O)OCC)C[C@@H](c2c[nH]c3ccc(OC)cc23)O[C@H]1c1cn(-c2ccccc2)nc1-c1ccc(OC)cc1
viability [2]: 90.1%

CCOC(=O)C1(C(=O)OCC)C[C@@H](c2c[nH]c3ccc(C)cc23)O[C@H]1c1cn(-c2ccccc2)nc1-c1ccc(Cl)cc1
viability [2]: 92.3%

Clc1cccc(-n2nc(C3CCNCC3)cc2/C=C/c2c[nH]c3ccc(Cl)cc23)c1
MIC [1]: 1 µg/mL (≈ 2.29 µM)

CC1(C)S[C@@H]2[C@H](NC(=O)[C@H](N)c3ccc(O)cc3)C(=O)N2[C@H]1C(=O)O [AMOXICILLIN]
MIC [3]: 3.12 µg/mL (≈ 8.55 µM)
MIC [4]: 3.12 µg/mL (≈ 8.55 µM)
MIC [5]: 6.25 µg/mL (≈ 17.1 µM)
MIC [6]: 3.12 µg/mL (≈ 8.55 µM)
MIC [7]: 3.12 µg/mL (≈ 8.55 µM)
MIC [8]: 3.12 µg/mL (≈ 8.55 µM)
MIC [9]: 3.12 µg/mL (≈ 8.55 µM)
MIC [10]: 3.12 µg/mL (≈ 8.55 µM)

OC(Cn1cncn1)(Cn1cncn1)c1ccc(F)cc1F [FLUCONAZOLE]
MIC [5]: 6.25 µg/mL (≈ 20.4 µM)
